We go through 32 compounds from patent publication US11319298B2 (Merck Sharp & Dohme Corp., priority 2016, dated 2022).

pEC50: −log10 of the molar value.

The target of this assay is T1, human M4 muscarinic acetylcholine receptor (Homo sapiens, UniProt P08173).
T1 construct: expressed in transfected cells; host or cells: CHO-K1
T1 sequence (P08173 1-479): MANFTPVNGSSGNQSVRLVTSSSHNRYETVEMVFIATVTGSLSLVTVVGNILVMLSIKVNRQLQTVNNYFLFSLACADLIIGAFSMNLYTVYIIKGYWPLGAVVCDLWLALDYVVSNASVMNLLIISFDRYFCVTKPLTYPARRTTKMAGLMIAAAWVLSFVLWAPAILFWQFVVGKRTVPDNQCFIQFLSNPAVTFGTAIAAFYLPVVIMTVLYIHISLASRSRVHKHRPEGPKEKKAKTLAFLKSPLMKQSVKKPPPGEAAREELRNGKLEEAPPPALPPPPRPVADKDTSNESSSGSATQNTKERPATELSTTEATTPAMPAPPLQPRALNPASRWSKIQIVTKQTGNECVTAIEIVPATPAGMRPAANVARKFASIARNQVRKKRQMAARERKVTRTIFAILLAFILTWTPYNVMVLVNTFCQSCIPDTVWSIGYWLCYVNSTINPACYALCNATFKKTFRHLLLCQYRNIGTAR
Kind of assay: human FLIPR-based M4 PAM assay, CHO-K1 cells stably transfected with human M4 receptor and chimeric G-protein Gαqi5. The format is cell-based. As to conditions: inflection point (IP) of dose response curve; acetylcholine added at 20% of maximum response; CHO-K1 human M4/Gαqi5, FLIPR Tetra. The essentials: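 CHO-K1 cells were loaded with calcium dye at 37 °C for ~1 h. Fluorescence (ex 470–495/em 515–575 nm) was read for 4 min after test compound at increasing concentrations, then 3.5 min after acetylcholine at an EC20; sometimes a third addition at EC70 followed. The value is the inflection point of a 4-parameter logistic fit.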
One may read the pEC50 as the EC50 on a negative log10 scale, so that one unit is a factor of ten. Lower therefore signals a high EC50. `COc1ccc(OC2CCN(c3nnc(C(=O)NCc4c(C)nc5ccccn45)cc3C)CC2)cn1` [Example 149, 6-{4-[(6-methoxypyridin-3-yl)oxy]piperidin-1-yl}-5-methyl-N-[(2-methylimidazo[1,2-a]pyridin-3-yl)methyl]pyridazine-3-carboxamide] showed a pEC50 of 6.64.

Take `Cc1c(Cl)nc(CO)nc1N1CCC(Oc2ccc3ncnn3c2)CC1` [Example 4, (4-(4-([1,2,4]triazolo[1,5-a]pyridin-6-yloxy)piperidin-1-yl)-6-chloro-5-methylpyrimidin-2-yl)methanol]: the pEC50 was 6.27. For `COc1ccc(OC2CCN(c3nnc(C(=O)NCc4ccncn4)cc3C)CC2)cn1` [Example 150, 6-{4-[(6-methoxypyridin-3-yl)oxy]piperidin-1-yl}-5-methyl-N-(pyrimidin-4-ylmethyl)pyridazine-3-carboxamide] the value was 6.63; for `COc1ccc(OC2CCN(c3nnc(C(=O)Nc4ccc(CC(F)(F)F)cc4)cc3C)CC2)cn1` [Example 190, 6-{4-[(6-methoxypyridin-3-yl)oxy]piperidin-1-yl}-5-methyl-N-[4-(2,2,2-trifluoroethyl)phenyl]pyridazine-3-carboxamide], 5.70; for `Cc1cc(C(=O)N[C@H]2CCc3ncccc3C2)nnc1N1CCC(Oc2cccc(C#N)c2)CC1` [Example 130A, (S)-6-[4-(3-cyanophenoxy)piperidin-1-yl]-5-methyl-N-(5,6,7,8-tetrahydroquinolin-6-yl)pyridazine-3-carboxamide], 6.90. With `COc1ccc(OC2CCN(c3nc(Cl)nc(Cl)c3C)CC2)cc1` [Example 77, 2,4-dichloro-6-(4-(4-methoxyphenoxy)piperidin-1-yl)-5-methylpyrimidine] the figure was 6.75; with `Cc1c(Cl)nc(CO)nc1N1CCC(Oc2cccc(C#N)c2)CC1` [Example 51, 3-((1-(6-chloro-2-(hydroxymethyl)-5-methylpyrimidin-4-yl)piperidin-4-yl)oxy)benzonitrile], 7.29; with `CSc1ncc(C#N)c(N2CCC(Oc3cccnc3)CC2)n1` [Example 95A, 2-(methylthio)-4-(4-(pyridin-3-yloxy)piperidin-1-yl)pyrimidine-5-carbonitrile], 5.31.

`Cc1cc(C(=O)NC2CCc3ccccc3C2)nnc1N1CCC(Oc2cccc(C#N)c2)CC1` (centres unmarked) [Example 201, 6-[4-(3-cyanophenoxy)piperidin-1-yl]-5-methyl-N-(1,2,3,4-tetrahydronaphthalen-2-yl)pyridazine-3-carboxamide]: the pEC50 was 6.57. For `COc1ccc(OC2CCN(c3nc(CO)nc(Cl)c3C)CC2)cc1C#N` [Example 48, 5-((1-(6-chloro-2-(hydroxymethyl)-5-methylpyrimidin-4-yl)piperidin-4-yl)oxy)-2-methoxybenzonitrile], the pEC50 is 7.36.

`Cc1cncc(-c2ncnc(N3CCC(Oc4cccc(C#N)c4)CC3)c2C)c1` [Example 247, 3-((1-(5-methyl-6-(5-methylpyridin-3-yl)pyrimidin-4-yl)piperidin-4-yl)oxy)benzonitrile] showed a pEC50 of 5.95. Regarding `Cc1c(Cl)nc(CO)nc1N1CC[C@@H](Oc2ccc3c(c2)C(=O)N(C)C3)[C@@H](F)C1` [Example 43, 6-(((3S,4R)-1-(6-chloro-2-(hydroxymethyl)-5-methylpyrimidin-4-yl)-3-fluoropiperidin-4-yl)oxy)-2-methylisoindolin-1-one], the pEC50 is 6.42. For `COc1ccc(OC2CCN(c3nnc(C(=O)NCc4ccccc4)cc3C)CC2)cn1` [Example 193, N-benzyl-6-{4-[(6-methoxypyridin-3-yl)oxy]piperidin-1-yl}-5-methylpyridazine-3-carboxamide] the value was 7.46; for `COc1ccc(OC2CCN(c3nnc(C(=O)NC4CCCC4)cc3C)CC2)cn1` [Example 169, N-cyclopentyl-6-{4-[(6-methoxypyridin-3-yl)oxy]piperidin-1-yl}-5-methylpyridazine-3-carboxamide], 6.34. For `Cc1cc(C(=O)NC2CCc3cnccc3C2)nnc1N1CCC(Oc2cccc(C#N)c2)CC1` (centres unmarked) [Example 172, 6-[4-(3-cyanophenoxy)piperidin-1-yl]-5-methyl-N-(5,6,7,8-tetrahydroisoquinolin-6-yl)pyridazine-3-carboxamide] the value was 6.29. With `COC(=O)Cc1c(Cl)ncnc1N1CCC(Oc2ccc(OC)cc2)CC1` [Example 17, methyl 2-(4-chloro-6-(4-(4-methoxyphenoxy)piperidin-1-yl)pyrimidin-5-yl)acetate] the figure was 5.57. Regarding `COc1ccc(OC2CCN(c3nnc(C(=O)NC4CCc5cc(F)ccc5C4)cc3C)CC2)cn1` (centres unmarked) [Example 168, N-(6-fluoro-1,2,3,4-tetrahydronaphthalen-2-yl)-6-{4-[(6-methoxypyridin-3-yl)oxy]piperidin-1-yl}-5-methylpyridazine-3-carboxamide], the pEC50 was 6.35. With `COc1ccc(OC2CCN(c3nc(C#N)c(C(N)=O)cc3C)CC2)cn1` [Example 112, 2-cyano-6-{4-[(6-methoxpyridin-3-yl)oxy]piperidin-1-yl}-5-methylpyridine-3-carboxamide] the figure was 7.39; with `COc1ccc(OC2CCN(c3nnc(C(=O)N[C@@H]4CCc5cc(F)ccc5C4)cc3C)CC2)cn1` [Example 184B, (R)-N-(6-fluoro-1,2,3,4-tetrahydronaphthalen-2-yl)-6-{4-[(6-methoxypyridin-3-yl)oxy]piperidin-1-yl}-5-methylpyridazine-3-carboxamide], 6.00; with `Cc1ncc(C)c(N2CCC(Oc3ccc(OCCO)nc3)CC2)n1` [Example 64, 2-((5-((1-(2,5-dimethylpyrimidin-4-yl)piperidin-4-yl)oxy)pyridin-2-yl)oxy)ethan-1-ol], 7.00. With `COc1ccc(OC2CCN(c3nnc(C(=O)NCc4ncn[nH]4)cc3C)CC2)cn1` [Example 167, 6-{4-[(6-methoxypyridin-3-yl)oxy]piperidin-1-yl}-5-methyl-N-(1H-1,2,4-triazol-5-ylmethyl)pyridazine-3-carboxamide] the figure was 6.38; with `Cc1cc(C(=O)NC2CCc3cccnc3C2)nnc1N1CCC(OCC2CC2)CC1` (centres unmarked) [Example 144, 6-[4-(cyclopropylmethoxy)piperidin-1-yl]-5-methyl-N-(5,6,7,8-tetrahydroquinolin-7-yl)pyridazine-3-carboxamide], 6.71; with `COc1ccc(OC2CCN(c3nc(C(N)=O)nc(Cl)c3C)CC2)cn1` [Example 206, 4-chloro-6-(4-((6-methoxypyridin-3-yl)oxy)piperidin-1-yl)-5-methylpyrimidine-2-carboxamide], 6.77.

`Cc1cc(C#N)nnc1N1CCC(Oc2cccc(C#N)c2)CC1` [Example 259, 6-(4-(3-cyanophenoxy)piperidin-1-yl)-5-methylpyridazine-3-carbonitrile] gave a pEC50 of 7.21. `Cc1cc(C(=O)NCc2ccccc2Cl)nnc1N1CCC(Oc2cccc(C#N)c2)CC1` [Example 199, N-(2-chlorobenzyl)-6-[4-(3-cyanophenoxy)piperidin-1-yl]-5-methylpyridazine-3-carboxamide] gave a pEC50 of 6.93. With `Cc1cc(C(=O)NCc2ccncc2)nnc1N1CCC(Oc2ccc3c(c2)OCCO3)CC1` [Example 108, 6-[4-(2,3-dihydro-1,4-benzodioxin-6-yloxy)piperidin-1-yl]-5-methyl-N-(pyridin-4-ylmethyl)pyridazine-3-carboxamide] the figure was 7.74; with `COc1ccc(OC2CCN(c3ncnc(CC(C)C)c3C)CC2)cn1` [Example 255, 4-isobutyl-6-(4-((6-methoxypyridin-3-yl)oxy)piperidin-1-yl)-5-methylpyrimidine], 5.60; with `C=Cc1ncnc(N2CCC(Oc3ccc(OC)nc3)CC2)c1C` [Example 243, 4-(4-((6-methoxypyridin-3-yl)oxy)piperidin-1-yl)-5-methyl-6-vinylpyrimidine], 6.47. Turning to `COc1ccc(OC2CCN(c3nc(C4CC4)nc(Cl)c3C)CC2)cc1` [Example 95C, 4-chloro-2-cyclopropyl-6-(4-(4-methoxyphenoxy)piperidin-1-yl)-5-methylpyrimidine], the pEC50 was 6.07. Turning to `COc1ccc([C@H](C)NC(=O)c2cc(C)c(N3CCC(Oc4ccc(OC)nc4)CC3)nn2)cc1` [Example 182, N-[(1S)-1-(4-methoxyphenyl)ethyl]-6-{4-[(6-methoxypyridin-3-yl)oxy]piperidin-1-yl}-5-methylpyridazine-3-carboxamide], the pEC50 is 6.05. For `COc1ccc(OC2CCN(c3nc(C(=O)NC4CCc5cccnc5C4)nc(Cl)c3C)CC2)cn1` (centres unmarked) [Example 217, 4-chloro-6-(4-((6-methoxypyridin-3-yl)oxy)piperidin-1-yl)-5-methyl-N-(5,6,7,8-tetrahydroquinolin-7-yl)pyrimidine-2-carboxamide] the value was 5.99; for `COc1ccc(O[C@@H]2CCN(c3nc(C(N)=O)nc(Cl)c3C)C[C@@H]2F)cn1` [Example 222, 4-chloro-6-((3S,4R)-3-fluoro-4-((6-methoxypyridin-3-yl)oxy)piperidin-1-yl)-5-methylpyrimidine-2-carboxamide], 6.85.
